{"source": "patent US20240207458A1", "about": "“TARGETED ALPHA PARTICLE THERAPY FOR SOMATOSTATIN RECEPTOR 2 POSITIVE NEUROENDOCRINE TUMORS AND METASTASES” (H. LEE MOFFITT CANCER CENTER AND RESEARCH INSTITUTE, INC., priority 2021, published 2024)", "key": {"[1]": {"experiment": "Log D7.4, miniaturized shake flask assay (n-octanol/PBS pH 7.4)", "format": "physicochemical", "conditions": "for LogD7.4: metal chelate as named (Eu or La); for Log D7.4 of La^3+ chelate: La3+ chelate, n-octanol/PBS", "experimental": "Log D7.4 measurements of the La^3+-labeled derivatives: The octanol-water partition coefficients at pH7.4 (LogD7.4) of DOTA-linker-TATE derivatives were determined using the miniaturized shake flask assay (Table 1). Briefly, 1:1 n-octanol (HPLC grade) was added to the solution of the test compound in PBS buffer (NaH2PO4/Na2HPO4 buffer, pH 7.4). The mixture was well mixed and then two layers were separated by centrifuge. The concentrations of compound in each layer were determined by HPLC."}, "[2]": {"target": "T1, SSTR2 receptor (Homo sapiens, UniProt P30874)", "T1 construct": "expressed in transfected cells; host or cells: Hek293/SSTR2 cells", "T1 sequence (P30874 whole entry)": "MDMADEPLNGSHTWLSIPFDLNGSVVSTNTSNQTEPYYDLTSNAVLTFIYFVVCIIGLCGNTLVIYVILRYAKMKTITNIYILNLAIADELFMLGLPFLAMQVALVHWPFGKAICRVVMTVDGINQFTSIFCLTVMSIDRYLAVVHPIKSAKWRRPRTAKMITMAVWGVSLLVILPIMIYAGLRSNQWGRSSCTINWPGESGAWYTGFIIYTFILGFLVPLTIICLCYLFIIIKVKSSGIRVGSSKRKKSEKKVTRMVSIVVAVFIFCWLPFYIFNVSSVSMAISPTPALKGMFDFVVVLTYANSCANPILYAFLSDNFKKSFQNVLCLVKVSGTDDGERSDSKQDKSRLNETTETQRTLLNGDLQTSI", "experiment": "whole-cell competition binding assay with Eu-DOTATATE as competing ligand (Hek293/SSTR2 cells)", "conditions": "FIGS. 5 and 6", "experimental": "Competition curves were analyzed with GraphPad Prism software using the sigmoidal dose-response (variable slope) classical equation for nonlinear regression analysis."}, "[3]": {"conditions": "225Ac chelate, non-tumor bearing BALB/c mice", "procedure": "BD of ^225Ac-DOTA-linker-TATE derivatives in non-tumor bearing BALB/c mice: The biodistribution studies for all 5 compounds were conducted (FIG. 4 and Table 1)."}, "[4]": {"set-up": "species or system BALB/c mice", "conditions": "mouse, in vivo", "experimental": "(§1) Non-tumor bearing BALB/c mice were tested for toxicity and BD. […] RD was calculated using the BD data.\n(§2) RD calculations determined pharmacokinetics parameters and absorbed α-emission dosages from ^225Ac and its daughters."}, "[5]": {"conditions": "mouse, in vivo", "experimental": "as §1, §2"}, "[6]": {"experiment": "in vitro", "format": "in vitro ADME", "conditions": "human, plasma", "experimental": "The compound was >95% intact after 5 days incubation."}}, "note": "Bridge positions count the residues as written; N and C are the ends. Square brackets hold non-standard residues; d marks the D form. Peptide text beside a SMILES is read from it. * marks the point of attachment. DOTA = O=C(O)CN1CCN(CC(=O)O)CCN(CC(=O)*)CCN(CC(=O)O)CC1", "data": [{"compound": "Eu-DOTA-TATE [Compound 6, reference compound]", "values": [{"measurement": "LogD7.4", "setting": "[1]", "result": "−2.80"}]}, {"compound": "CC(C)C[C@@H](NC(=O)[C@@H](Cc1ccccc1)NC(=O)CN1CCN2CCN3CCN(CC1)CC(=O)[O][139La]([O]C(=O)C2)[O]C(=O)C3)C(=O)N[C@H](Cc1ccccc1)C(=O)N[C@H]1CSSC[C@@H](C(=O)N[C@H](C(=O)O)[C@@H](C)O)NC(=O)[C@H]([C@@H](C)O)NC(=O)[C@H](CCCCN)NC(=O)[C@@H](Cc2c[nH]c3ccccc23)NC(=O)[C@H](Cc2ccc(O)cc2)NC1=O", "note": "[Compound 15, 139La-DOTA-D-Phe-D-Leu-TATE]", "values": [{"measurement": "binding affinity for the SSTR2 receptor", "setting": "[2]", "result": "high binding affinity (low nM Ki)"}]}, {"compound": "C[C@@H](O)[C@H](NC(=O)[C@@H]1CSSC[C@H](NC(=O)[C@@H](Cc2ccccc2)NC(=O)CN2CCN(CC(=O)O)CCN(CC(=O)O)CCN(CC(=O)O)CC2)C(=O)N[C@@H](Cc2ccc(O)cc2)C(=O)N[C@H](Cc2c[nH]c3ccccc23)C(=O)N[C@@H](CCCCN)C(=O)N[C@@H]([C@@H](C)O)C(=O)N1)C(=O)O", "note": "[Compound 1, DOTA-TATE, reference compound]", "values": [{"measurement": "Kidney/Liver uptake ratio (24 h)", "setting": "[3]", "result": 3.6}]}, {"compound": "C[C@@H](O)[C@H](NC(=O)[C@@H]1CSSC[C@H](NC(=O)[C@@H](Cc2ccccc2)NC(=O)[C@@H](CCC(=O)O)NC(=O)[C@@H](CCCCN)NC(=O)CN2CCN(CC(=O)O)CCN(CC(=O)O)CCN(CC(=O)O)CC2)C(=O)N[C@@H](Cc2ccc(O)cc2)C(=O)N[C@H](Cc2c[nH]c3ccccc23)C(=O)N[C@@H](CCCCN)C(=O)N[C@@H]([C@@H](C)O)C(=O)N1)C(=O)O", "note": "[Compound 11, La-DOTA-D-Lys-D-Glu-TATE] ({DOTA}-[dK][dE][dF]CY[dW]KTCT-OH; disulfide 4-9)", "values": [{"measurement": "Log D7.4 of La^3+ chelate", "setting": "[1]", "result": "−3.10"}, {"measurement": "LogD7.4", "setting": "[1]", "result": "−3.10"}]}, {"compound": "C[C@@H](O)[C@H](NC(=O)[C@@H]1CSSC[C@H](NC(=O)[C@@H](Cc2ccccc2)NC(=O)[C@@H](CCCCN)NC(=O)[C@@H](CCCCN)NC(=O)CN2CCN(CC(=O)O)CCN(CC(=O)O)CCN(CC(=O)O)CC2)C(=O)N[C@@H](Cc2ccc(O)cc2)C(=O)N[C@H](Cc2c[nH]c3ccccc23)C(=O)N[C@@H](CCCCN)C(=O)N[C@@H]([C@@H](C)O)C(=O)N1)C(=O)O", "note": "[Compound 10, La-DOTA-D-Lys-D-Lys-TATE]", "values": [{"measurement": "Log D7.4 of La^3+ chelate", "setting": "[1]", "result": "−3.28"}, {"measurement": "LogD7.4", "setting": "[1]", "result": "−3.28"}]}, {"compound": "C[C@@H](O)[C@H](NC(=O)[C@@H]1CSSC[C@H](NC(=O)[C@@H](Cc2ccccc2)NC(=O)[C@@H](CCC(=O)O)NC(=O)[C@@H](CCC(=O)O)NC(=O)CN2CCN(CC(=O)O)CCN(CC(=O)O)CCN(CC(=O)O)CC2)C(=O)N[C@@H](Cc2ccc(O)cc2)C(=O)N[C@H](Cc2c[nH]c3ccccc23)C(=O)N[C@@H](CCCCN)C(=O)N[C@@H]([C@@H](C)O)C(=O)N1)C(=O)O", "note": "[Compound 3, DOTA-di-D-Glu-TATE]", "values": [{"measurement": "Kidney/Liver uptake ratio (24 h)", "setting": "[3]", "result": 16.5}]}, {"compound": "C[C@@H](O)[C@H](NC(=O)[C@@H]1CSSC[C@H](NC(=O)[C@@H](Cc2ccccc2)NC(=O)CCCCCNC(=O)CN2CCN(CC(=O)O)CCN(CC(=O)O)CCN(CC(=O)O)CC2)C(=O)N[C@@H](Cc2ccc(O)cc2)C(=O)N[C@H](Cc2c[nH]c3ccccc23)C(=O)N[C@@H](CCCCN)C(=O)N[C@@H]([C@@H](C)O)C(=O)N1)C(=O)O", "note": "[Compound 2, DOTA-Ahx-TATE]", "values": [{"measurement": "Kidney/Liver uptake ratio (24 h)", "setting": "[3]", "result": 5.3}]}, {"compound": "C[C@@H](NC(=O)[C@@H](Cc1ccccc1)NC(=O)CN1CCN2CCN3CCN(CC1)CC(=O)[O][139La]([O]C(=O)C2)[O]C(=O)C3)C(=O)N[C@H](Cc1ccccc1)C(=O)N[C@H]1CSSC[C@@H](C(=O)N[C@H](C(=O)O)[C@@H](C)O)NC(=O)[C@H]([C@@H](C)O)NC(=O)[C@H](CCCCN)NC(=O)[C@@H](Cc2c[nH]c3ccccc23)NC(=O)[C@H](Cc2ccc(O)cc2)NC1=O", "note": "[Compound 14, 139La-DOTA-D-Phe-D-Ala-TATE]", "values": [{"measurement": "binding affinity for the SSTR2 receptor", "setting": "[2]", "result": "high binding affinity (low nM Ki)"}]}, {"compound": "DOTA-D-Lys-D-Glu-TATE [Compound 5]", "values": [{"measurement": "Kidney/Liver uptake ratio (24 h)", "setting": "[3]", "result": 87.6}]}, {"compound": "C[C@@H](O)[C@H](NC(=O)[C@@H]1CSSC[C@H](NC(=O)[C@@H](Cc2ccccc2)NC(=O)[C@@H](CCCCN)NC(=O)[C@@H](CCCCN)NC(=O)CN2CCN(CC(=O)O)CCN(CC(=O)O)CCN(CC(=O)O)CC2)C(=O)N[C@@H](Cc2ccc(O)cc2)C(=O)N[C@H](Cc2c[nH]c3ccccc23)C(=O)N[C@@H](CCCCN)C(=O)N[C@@H]([C@@H](C)O)C(=O)N1)C(=O)O", "note": "[Compound 4, DOTA-di-D-Lys-TATE]", "values": [{"measurement": "Kidney/Liver uptake ratio (24 h)", "setting": "[3]", "result": 89.6}]}, {"compound": "C[C@@H](O)[C@H](NC(=O)[C@@H]1CSSC[C@H](NC(=O)[C@@H](Cc2ccccc2)NC(=O)CN2CCN(CC(=O)O)CCN(CC(=O)O)CCN(CC(=O)O)CC2)C(=O)N[C@@H](Cc2ccc(O)cc2)C(=O)N[C@H](Cc2c[nH]c3ccccc23)C(=O)N[C@@H](CCCCN)C(=O)N[C@@H]([C@@H](C)O)C(=O)N1)C(=O)O", "note": "[^225Ac-DOTATATE, metal not drawn]", "values": [{"measurement": "primary route of elimination", "setting": "[4]", "result": "renal route"}, {"measurement": "appearance / indications of toxicity", "setting": "[5]", "result": "no indications of toxicity"}, {"measurement": "remaining at 120 h", "setting": "[6]", "result": "96.7 ± 2.06", "unit": "%"}, {"measurement": "% Intact TLC scanner", "setting": "[6]; 24 h", "result": "100.44 ± 0.88", "unit": "%"}, {"measurement": "% Intact TLC scanner", "setting": "[6]; 72 h", "result": "99.27 ± 0.29", "unit": "%"}, {"measurement": "% Intact TLC scanner", "setting": "[6]; 168 h", "result": "93.19 ± 1.50", "unit": "%"}, {"measurement": "% Intact TLC scanner", "setting": "[6]; 240 h", "result": "90.29 ± 4.00", "unit": "%"}]}]}
